# Target: T1, XylR (Mycolicibacterium smegmatis, UniProt A0R508)
# T1 construct: gene MSMEG_6022
# T1 sequence (A0R508 1-393): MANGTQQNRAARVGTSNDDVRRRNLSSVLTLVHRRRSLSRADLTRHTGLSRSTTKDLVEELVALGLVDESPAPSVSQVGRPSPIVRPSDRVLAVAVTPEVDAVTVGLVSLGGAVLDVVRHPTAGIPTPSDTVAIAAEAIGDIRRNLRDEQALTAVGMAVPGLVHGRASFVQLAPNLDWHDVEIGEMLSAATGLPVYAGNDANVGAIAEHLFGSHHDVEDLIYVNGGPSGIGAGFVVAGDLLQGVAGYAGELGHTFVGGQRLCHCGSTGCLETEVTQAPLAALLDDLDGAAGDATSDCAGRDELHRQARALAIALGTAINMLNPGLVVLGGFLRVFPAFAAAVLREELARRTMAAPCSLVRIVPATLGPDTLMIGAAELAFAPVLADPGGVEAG
# Experiment: isothermal titration calorimetry
# Assay type: binding
# Details: 20 mM Tris-base, 100 mM NaCl, 5 mM MgCl2, pH 7.5; 35 μM XylR; independent-site model, n = 1.09 ± 0.04
smiles,measurement,value
OC1OC[C@@H](O)[C@H](O)[C@H]1O (stereo partly drawn) [D-xylose],Kd,4.72 ± 0.6 µM
